Data published in US10905123B2, “Herbicidal compounds” (Syngenta Participations AG, priority 2015, dated 2021).

How the values were obtained:
Assay type in all cases: in vivo
Conditions in all cases: evaluated after 13 days
Lolium perenne (LOLPE) [1] = assay: B1 pre-emergence herbicidal activity
Protocol: (§1) Seeds of a variety of test species were sown in standard soil in pots: Triticum aestivium (TRZAW), Oryza sativa (ORYSA), Avena fatua (AVEFA), Alopecurus myosuroides (ALOMY), Echinochloa crus-galli (ECHCG), Lolium perenne (LOLPE). After cultivation for one day (pre-emergence) under controlled conditions in a glasshouse (at 24/16° C., day/night; 14 hours light; 65% humidity), the plants were sprayed with an aqueous spray solution derived from the formulation of the technical active ingredient in acetone/water (50:50) solution containing 0.5% Tween 20 (polyoxyethelyene sorbitan monolaurate, CAS RN 9005-64-5). The test plants were then grown in a glasshouse under controlled conditions (at 24/16° C., day/night; 14 hours light; 65% humidity) and watered twice daily. After 13 days, the test was evaluated (5=total damage to plant; 0=no damage to plant).

[2] = test system: Echinochloa crus-galli (ECHCG); assay: B1 pre-emergence herbicidal activity
Protocol: as §1

Oryza sativa (ORYSA) [3] = assay: B1 pre-emergence herbicidal activity
Protocol: as §1

[4] = test system: Triticum aestivium (TRZAW); assay: B1 pre-emergence herbicidal activity
Protocol: as §1

Avena fatua (AVEFA) [5] = assay: B1 pre-emergence herbicidal activity
Protocol: as §1

[6] = test system: Alopecurus myosuroides (ALOMY); assay: B1 pre-emergence herbicidal activity
Protocol: as §1

Lolium perenne (LOLPE) [7] = assay: B2 post-emergence herbicidal activity
Protocol: (§2) Seeds of a variety of test species were sown in standard soil in pots: Triticum aestivium (TRZAW), Oryza sativa (ORYSA), Avena fatua (AVEFA), Alopecurus myosuroides (ALOMY), Echinochloa crus-galli (ECHCG), Lolium perenne (LOLPE). After 8 days cultivation (post-emergence) under controlled conditions in a glasshouse (at 24/16° C., day/night; 14 hours light; 65% humidity), the plants were sprayed with an aqueous spray solution derived from the formulation of the technical active ingredient in acetone/water (50:50) solution containing 0.5% Tween 20 (polyoxyethelyene sorbitan monolaurate, CAS RN 9005-64-5). The test plants were then grown in a glasshouse under controlled conditions (at 24/16° C., day/night; 14 hours light; 65% humidity) and watered twice daily. After 13 days, the test was evaluated (5=total damage to plant; 0=no damage to plant).

[8] = test system: Echinochloa crus-galli (ECHCG); assay: B2 post-emergence herbicidal activity
Protocol: as §2

Oryza sativa (ORYSA) [9] = assay: B2 post-emergence herbicidal activity
Protocol: as §2

[10] = test system: Triticum aestivium (TRZAW); assay: B2 post-emergence herbicidal activity
Protocol: as §2

Avena fatua (AVEFA) [11] = assay: B2 post-emergence herbicidal activity
Protocol: as §2

[12] = test system: Alopecurus myosuroides (ALOMY); assay: B2 post-emergence herbicidal activity
Protocol: as §2

SMILES	Control of LOLPE after pre-emergence application (damage score 0-5) (Lolium perenne (LOLPE) [1]; Rate 1000 g/ha)	Control of ECHCG after pre-emergence application (damage score 0-5) ([2]; Rate 1000 g/ha)	Control of ORYSA after pre-emergence application (damage score 0-5) (Oryza sativa (ORYSA) [3]; Rate 1000 g/ha)	Control of TRZAW after pre-emergence application (damage score 0-5) ([4]; Rate 1000 g/ha)	Control of AVEFA after pre-emergence application (damage score 0-5) (Avena fatua (AVEFA) [5]; Rate 1000 g/ha)	Control of ALOMY after pre-emergence application (damage score 0-5) ([6]; Rate 1000 g/ha)	Control of LOLPE after post-emergence application (damage score 0-5) (Lolium perenne (LOLPE) [7]; Rate 1000 g/ha)	Control of ECHCG after post-emergence application (damage score 0-5) ([8]; Rate 1000 g/ha)	Control of ORYSA after post-emergence application (damage score 0-5) (Oryza sativa (ORYSA) [9]; Rate 1000 g/ha)	Control of TRZAW after post-emergence application (damage score 0-5) ([10]; Rate 1000 g/ha)	Control of AVEFA after post-emergence application (damage score 0-5) (Avena fatua (AVEFA) [11]; Rate 1000 g/ha)	Control of ALOMY after post-emergence application (damage score 0-5) ([12]; Rate 1000 g/ha)	also measured
Cc1nn(-c2cncnc2)cc1N(C)C1=NCCCCO1 [Compound A53]	0	0	0	0	0	0	1	0	0	0	0	0	
CN(C(=O)OC(C)(C)C)c1cc(-c2cccnc2)nn1C [Compound A1, tert-butyl N-methyl-N-[2-methyl-5-(3-pyridyl)pyrazol-3-yl]carbamate]	1	3	1	0	1	0	1	5	4	1	1	3	
C=CCN(C(=O)OC(C)(C)C)c1cn(-c2cncc(F)c2)nc1C [Compound A54]	0	0	0	0	0	0	1	1	0	0	1	1	
CN(C(=O)OC(C)(C)C)c1c(Cl)c(-c2cccnc2)nn1C [Compound A39]	0	3	1	0	4	0	3	4	1	0	1	2	
CCN(C(=O)OC(C)(C)C)c1cn(-c2cncnc2)nc1C(F)(F)F [Compound A56]	0	1	0	0	0	0	0	1	0	1	1	1	
Cc1nn(-c2cncnc2)cc1NC(=O)OC(C)(C)C [Compound A3, tert-butyl N-(3-methyl-1-pyrimidin-5-yl-pyrazol-4-yl)carbamate]													Control of LOLPE after pre-emergence application (damage score 0-5) (Lolium perenne (LOLPE) [1]; Rate 500 g/ha): 0; Control of ECHCG after pre-emergence application (damage score 0-5) ([2]; Rate 500 g/ha): 4; Control of ORYSA after pre-emergence application (damage score 0-5) (Oryza sativa (ORYSA) [3]; Rate 500 g/ha): 1; Control of TRZAW after pre-emergence application (damage score 0-5) ([4]; Rate 500 g/ha): 1; Control of AVEFA after pre-emergence application (damage score 0-5) (Avena fatua (AVEFA) [5]; Rate 500 g/ha): 0; Control of ALOMY after pre-emergence application (damage score 0-5) ([6]; Rate 500 g/ha): 0; Control of LOLPE after post-emergence application (damage score 0-5) (Lolium perenne (LOLPE) [7]; Rate 500 g/ha): 2; Control of ECHCG after post-emergence application (damage score 0-5) ([8]; Rate 500 g/ha): 5; Control of ORYSA after post-emergence application (damage score 0-5) (Oryza sativa (ORYSA) [9]; Rate 500 g/ha): 1; Control of TRZAW after post-emergence application (damage score 0-5) ([10]; Rate 500 g/ha): 1; Control of AVEFA after post-emergence application (damage score 0-5) (Avena fatua (AVEFA) [11]; Rate 500 g/ha): 4; Control of ALOMY after post-emergence application (damage score 0-5) ([12]; Rate 500 g/ha): 2
CN(C(=O)Oc1ccccc1)c1cn(-c2cncc(F)c2)nc1C(F)(F)F [Compound A46]	0	0	0	0	0	0	1	2	0	0	2	0	
CN(C(=O)NC(C)(C)C)c1cn(-c2cncc(F)c2)nc1C(F)(F)F [Compound A19]	1	2	0	0	0	0	1	4	0	0	1	1	
CC(C)(C)OC(=O)Nc1cn(-c2cncnc2)nc1C(F)(F)F [Compound A4]	0	4	1	0	1	0	1	5	2	1	1	1	
Cc1nn(-c2cncnc2)cc1N(C)C(=O)NC(C)(C)C [Compound A16]	1	2	1	1	1	1	2	4	0	1	3	1	
CCN(C(=O)OC(C)(C)C)c1cn(-c2cncc(F)c2)nc1C(F)(F)F [Compound A55]	0	0	0	0	0	0	0	0	0	0	0	0	
